System: stromal cells prepared from the femur bone marrow of a normal rat
Assay: Osteogenesis promoting effect: alkaline phosphatase activity in cultured bone marrow stromal cells
Type: cell-based, rat (Sprague-Dawley)
Conditions: test compound 10^−5 M added from 2nd day of culture, cultured additional 5 days, mean ± S.E. (n = 4)
Protocol: Osteogenesis promoting effect:
Using the stromal cells prepared from the femur bone marrow of a normal rat, an alkaline phosphatase activity was measured as an index of osteogenesis. Briefly, according to the method of Maniatopoulos et al. [Cell Tissue Research, volume 254, p.317 ([…])], the stromal cells were prepared from the femur bone of a Sprague-Dawley male rat, 7 weeks of age, and cultured in an α-MEM (minimum essential medium) solution containing dexamethasone (10^−7M) and β-glycerophosphoric acid (10^−2M) in order to generate calcified bony tissue. One week later, the confluent primary cells were treated with 0.25% trypsin-0.25% EDTA solution, recovered, and subclutured on a culture plate at a cell density of […], (cultured day 0). From the 2nd day of the culture, a test compound (10^−5M) was added to the above culture medium, and cultured for an additional 5 days. The cells were washed with a phosphate buffer, and after addition of 0.2% Nonidet P-40, they were homogenized and centrifuged at 3000 rpm for 10 minutes. The supernatant was measured for an alkaline phosphatase activity according to the method of Lowry et al. [Journal of Biological Chemistry, volume 207, p.19 (1954)]. Tables 1 and 2 show the measured values in terms of mean±standard error (SE). Statistical analysis was performed by means of the Student's t-test.

[1] = Table 1, control (no addition) 0.175 ± 0.009
[2] = Table 2, control (no addition) 0.180 ± 0.008

Row | Structure (SMILES) | Alkaline phosphatase activity (A405) [1] [A405] | Alkaline phosphatase activity (A405) [2] [A405]
1 | O=C1NC(=O)C(Cc2ccc(NC(=O)c3cc(=O)c4ccccc4o3)cc2)S1 (centres unmarked) [Example no. 1, N-[4-[(2,4-dioxo-1,3-thiazolidin-5-yl)methyl]phenyl]-4-oxo-4H-1-benzopyran-2-carboxamide] | 0.564 ± 0.041 | –
2 | O=C1NC(=O)C(Cc2ccc(NC(=O)c3cc(=O)c4ccccc4o3)cc2)O1 (centres unmarked) [Example no. 2, N-[4-[(2,4-dioxo-1,3-oxazolidin-5-yl)methyl]phenyl]-4-oxo-4H-1-benzopyran-2-carboxamide] | 0.310 ± 0.008 | –
3 | O=C(Nc1ccc(CN2CCOCC2)cc1)c1cc(=O)c2ccccc2o1 [Example no. 5, N-[4-[(4-morpholinyl)methyl]phenyl]-4-oxo-4H-1-benzopyran-2-carboxamide] | 0.558 ± 0.040 | –
4 | O=C1NC(=O)C(Cc2ccc(NC(=O)c3cc(=O)c4c(O)cccc4o3)cc2)S1 (centres unmarked) [Example no. 16, N-[4-[(2,4-dioxo-1,3-thiazolidin-5-yl)methyl]phenyl]-5-hydroxy-4-oxo-4H-1-benzopyran-2-carboxamide] | – | 0.720 ± 0.033
5 | O=C1NC(=O)C(Cc2ccc(NC(=O)c3cc(=O)c4c(O)cc(O)cc4o3)cc2)S1 (centres unmarked) [Example no. 18] | – | 0.720 ± 0.037

Reference: patent publication US6552054B1, “Chromone derivatives, process for the preparation of the same and uses thereof” (Takeda Chemical Industries, Ltd., priority 1999, dated 2003)
